Experimental data from ChEMBL document CHEMBL5338726, “Characterization of Chlorogenic Acid as a Two-Photon Fluorogenic Probe that Regulates Glycolysis in Tumor Cells under Hypoxia” (J Med Chem, 2023).
The source made the active and inactive calls.

Assays:
[1] = system: A-375; assay: Radical scavenging activity in 2-ME treated oxidative stress induced human A-375 cells assessed as increase in fluorescent signal at 10 uM incubated for 30 mins by confocal microscopic analysis; assay type: functional, cell-based
[2] = system: A-375; assay: Radical scavenging activity in 2-ME treated oxidative stress induced human A-375 cells assessed as increase in fluorescent signal at 10 uM incubated for 30 mins followed by washout and addition of ascorbic acid by confocal microscopic analysis; assay type: functional, cell-based
[3] = system: A-375; assay: Radical scavenging activity in 2-ME treated oxidative stress induced human A-375 cells assessed as increase in fluorescent signal at 10 uM incubated for 30 mins followed by washout and addition of superoxide dismutase by confocal microscopic analysis; assay type: functional, cell-based
[4] = system: A-375; assay: Radical scavenging activity in 2-ME treated oxidative stress induced tumor bearing BALB/c-nu mouse xenografted in human A-375 cells assessed as increase in fluorescence intensity at 10 uM incubated for 30 mins by confocal microscopic analysis; assay type: functional, cell-based
[5] = system: A-375; assay: Radical scavenging activity in 2-ME treated oxidative stress induced tumor bearing BALB/c-nu mouse xenografted in human A-375 cells assessed as increase in fluorescence intensity at 10 uM incubated for 30 mins followed by washout and addition of ascorbic acid by confocal microscopic analysis; assay type: functional, cell-based
[6] = Drug localization in 2-ME treated human A-375 cells assessed as fluorescence in mitochondrial apparatus at 10 uM incubated for 30 mins by mito-tracker green dye based confocal microscopy analysis; assay type: ADME, cell-based; conditions: a-375, 0.5 h
[7] = Drug localization in 2-ME treated human A-375 cells assessed as fluorescence in lysosomes at 10 uM incubated for 30 mins by lyso-tracker red dye based confocal microscopy analysis; assay type: ADME, cell-based; conditions: a-375, 0.5 h
[8] = system: A-375; assay: Antiproliferative activity against human A-375 cells assessed as reduction in cell growth at 1.25 to 10 uM incubated for 72 hrs under hypoxia condition by MTT assay; assay type: functional, cell-based; conditions: dose 1.25-10 µM
[9] = system: A-375; assay: Antiproliferative activity against human A-375 cells assessed as reduction in cell growth at 1.25 to 10 uM incubated for 72 hrs under normoxia condition by MTT assay; assay type: functional, cell-based; conditions: dose 1.25-10 µM
[10] = system: A-375; assay: Antiproliferative activity against human A-375 cells assessed as reduction in colony number at 1.25 to 10 uM measured after 10 days under hypoxia condition by crystal violet staining based analysis; assay type: functional, cell-based; conditions: dose 1.25-10 µM, time 10.0 day
[11] = system: A-375; assay: Antiproliferative activity against human A-375 cells assessed as reduction in colony number at 1.25 to 10 uM measured after 10 days under normoxia condition by crystal violet staining based analysis; assay type: functional, cell-based; conditions: dose 1.25-10 µM, time 10.0 day
[12] = system: A-375; assay: Antitumor activity in human A-375 cells xenografted in BALB/c-nu mouse model assessed as inhibition of tumor growth at 25 to 50 mg/kg, ip administered once daily and measured every 3 days for 18 days; assay type: functional, organism-based; conditions: dose 25-50 mg/kg, time 18.0 day
[13] = Toxicity in BALB/c-nu mouse xenografted with human A-375 cells assessed as effect on body weight at 25 to 50 mg/kg, ip administered once daily fo 18 days post treatment; assay type: organism-based; conditions: in vivo, 432 h, dose 25-50 mg/kg, time 18 day
[14] = system: A-375; assay: Antitumor activity in human A-375 cells xenografted in BALB/c-nu mouse model assessed as decrease in AMPKalpha phosphorylation 50 mg/kg, ip by Western blot analysis; assay type: functional, organism-based
[15] = system: A-375; assay: Reduction in […] O2 level in human A-375 cells at 2.5 to 10 uM incubated for 72 hrs under hypoxia condition by DHE based flow cytometry analysis; assay type: functional, cell-based; conditions: dose 2.5-10 µM
[16] = system: A-375; assay: Reduction in […] O2 level in human A-375 cells at 2.5 to 10 uM incubated for 72 hrs under normoxia condition by DHE based flow cytometry analysis; assay type: functional, cell-based; conditions: dose 2.5-10 µM
[17] = system: A-375; assay: Reduction in AMPK phosphorylation level in human A-375 cells at upto 20 uM incubated for 72 hrs under hypoxic condition by Western blot analysis; assay type: functional, cell-based
[18] = system: A-375; assay: Reduction in AMPK phosphorylation level in human A-375 cells at upto 20 uM incubated for 72 hrs under normoxic condition by Western blot analysis; assay type: functional, cell-based
[19] = system: A-375; assay: Reduction in extracellular acidification rates in human A-375 cells at upto 10 uM incubated for 6 hrs under hypoxia condition; assay type: functional, cell-based
[20] = system: A-375; assay: Reduction in ATP production in human A-375 cells at upto 10 uM incubated for 6 hrs under hypoxia condition by real-time ATP rate assay; assay type: functional, cell-based
[21] = system: A-375; assay: Increase in oxygen consumption rate in human A-375 cells at upto 10 uM measured after 6 hrs under hypoxia condition; assay type: functional, cell-based
[22] = system: A-375; assay: Reduction in extracellular acidification rates in human A-375 cells at upto 10 uM incubated for 6 hrs under normoxia condition; assay type: functional, cell-based
[23] = system: A-375; assay: Reduction in ATP production in human A-375 cells at upto 10 uM incubated for 6 hrs under normoxia condition by real-time ATP rate assay; assay type: functional, cell-based
[24] = system: A-375; assay: Increase in oxygen consumption rate in human A-375 cells at upto 10 uM measured after 6 hrs under normoxia condition; assay type: functional, cell-based

O=C(/C=C/c1ccc(O)c(O)c1)O[C@@H]1C[C@](O)(C(=O)O)C[C@@H](O)[C@H]1O [CHLOROGENIC ACID]
Non-Toxic: Activity [13]
Active: Drug uptake [6]
inactive: Activity [2] | Activity [3] | Activity [5] | Activity [9] | Activity [11] | Activity [16] | Activity [18] | Activity [22] | Activity [23] | Activity [24]
active: Activity [1] | Activity [4] | Activity [8] | Activity [10] | Activity [12] | Activity [14] | Activity [15] | Activity [17] | Activity [19] | Activity [20] | Activity [21]
Not Active: Drug uptake [7]
